Experimental data as given in paper PMC9718554, “Discovery of a fragment hit compound targeting D-Ala:D-Ala ligase of bacterial peptidoglycan biosynthesis” (Journal of Enzyme Inhibition and Medicinal Chemistry, 2022).
Like-named read-outs stand apart in the source and are kept apart here.

Molecular target: T1, E. coli DdlB enzyme (D-alanine:D-alanine ligase) (Escherichia coli, UniProt P07862)
T1 construct: made in house; host or cells: E. coli
Experiment: biochemical
Conditions: for remaining activity at 5000 µM: at 5 mM; for remaining activity at 5000 µM / remaining activity at 500 µM / remaining activity at 1000 µM / remaining activity at 1500 µM: read-out: DdlB inhibition, RA (Residual Activity); for remaining activity at 500 µM: at 0.5 mM; for remaining activity at 1000 µM: at 1 mM; for remaining activity at 1500 µM: at 1.5 mM; for remaining activity at 2100 µM: tested concentration 2.1 mM
Procedure: The fragment library was assayed in a DdlB inhibition assay, where fragments were tested for their ability to inhibit the D-Ala-adding activity of DdlB ligase. The orthophosphate formed during the enzymatic reaction was measured spectrophotometrically using malachite green reagent.
A recombinant E. coli DdlB enzyme (D-alanine:D-alanine ligase) was expressed in E. coli[11]. […] The final DMSO concentration was 5%. […] All experiments were performed in duplicates. […] IC50 values were determined by measuring the residual activities in quadruplicate at seven different compound concentrations and calculated using in GraphPad Prism (GraphPad Software, San Diego, CA, USA).

CN1CCC2(CC1)CN(C1CCC1)Cc1ccccc1O2 [CM3852-0302]
remaining activity at 1900 µM (residual activity, tested concentration 1.9 mM, read-out: DdlB RA): 86%

N#Cc1ccc(O)cc1F [Compound 00CS-0032]
remaining activity at 3600 µM (residual activity of DdlB, fragment library screening, tested concentration 3.6 mM, read-out: DdlB RA): 94%

O=C(O)c1cnn2c(-c3ccccc3)ccnc12 [Compound 9, 7-Phenylpyrazolo[1,5-a]pyrimidine-3-carboxylic acid]
remaining activity at 5000 µM: 90%

Cc1ccc(-c2ccnc3c(C(=O)O)cnn23)cc1 [Compound 10, 7-(p-Tolyl)pyrazolo[1,5-a]pyrimidine-3-carboxylic acid]
remaining activity at 500 µM: 101%

Cc1ccc(-c2ccnc3c(C(=O)O)cnn23)cc1C [Compound 11, 7–(3,4-Dimethylphenyl)pyrazolo[1,5-a]pyrimidine-3-carboxylic acid]
remaining activity at 500 µM: 100%

O=C(O)c1cnn2c(-c3ccc(Cl)cc3)ccnc12 [Compound 12, 7–(4-Chlorophenyl)pyrazolo[1,5-a]pyrimidine-3-carboxylic acid]
remaining activity at 1000 µM: 90% | remaining activity at 5000 µM: 0%

O=C(O)c1cnn2c(-c3cccc([N+](=O)[O-])c3)ccnc12 [Compound 13, 7–(3-Nitrophenyl)pyrazolo[1,5-a]pyrimidine-3-carboxylic acid]
remaining activity at 500 µM: 89%

O=C(O)c1cnn2c(-c3ccc4c(c3)OCO4)ccnc12 [Compound 14, 7-(Benzo[d][1,3]dioxol-5-yl)pyrazolo[1,5-a]pyrimidine-3-carboxylic acid]
remaining activity at 500 µM: 100%

O=C(O)c1cnn2c(-c3cccs3)ccnc12 [Compound 15, 7-(Thiophen-2-yl)pyrazolo[1,5-a]pyrimidine-3-carboxylic acid]
remaining activity at 1000 µM: 96%

O=C(O)c1cnn2c(-c3ccsc3)ccnc12 [Compound 16, 7-(Thiophen-3-yl)pyrazolo[1,5-a]pyrimidine-3-carboxylic acid]
remaining activity at 500 µM: 89%

Cc1nn(C)cc1-c1ccnc2c(C(=O)O)cnn12 [Compound 17, 7–(1,3-Dimethyl-1H-pyrazol-4-yl)pyrazolo[1,5-a]pyrimidine-3-carboxylic acid]
DdlB dose-response curve shape: Nonsigmoidal curve | remaining activity at 5000 µM: 26%

O=C(O)c1cc2nccc(-c3cccs3)n2n1 [Compound 18, 7-(Thiophen-2-yl)pyrazolo[1,5-a]pyrimidine-2-carboxylic acid]
remaining activity at 1500 µM: 87% | remaining activity at 5000 µM: 69%

O=C(O)c1cc2nccc(-c3ccccc3)n2n1 [Compound 19, 7-Phenylpyrazolo[1,5-a]pyrimidine-2-carboxylic acid]
remaining activity at 1500 µM: 90% | remaining activity at 5000 µM: 50%

CCOC(=O)c1cnn2c(-c3ccc(C)c(C)c3)ccnc12 [Compound 20, Ethyl 7–(3,4-dimethylphenyl)pyrazolo[1,5-a]pyrimidine-3-carboxylate]
remaining activity at 500 µM: 100%

NC(=O)c1cnn2c(-c3ccccc3)ccnc12 [Compound 21, 7-Phenylpyrazolo[1,5-a]pyrimidine-3-carboxamide]
remaining activity at 500 µM: 96%

Cc1cccc(-c2ccnc3c(C#N)cnn23)c1 [Compound 22, 7-(m-Tolyl)pyrazolo[1,5-a]pyrimidine-3-carbonitrile]
remaining activity at 500 µM: 100%

N/C(=N\O)c1cnn2c(-c3cccc(C(F)(F)F)c3)ccnc12 [Compound 23, (Z)-N'-Hydroxy-7–(3-(trifluoromethyl)phenyl)pyrazolo[1,5-a]pyrimidine-3-carboximidamide]
remaining activity at 500 µM: 94%

CCc1ccc(B(O)O)cc1 [Compound 0054-0178]
remaining activity at 3300 µM (tested concentration 3.3 mM, read-out: DdlB RA): 104%

O=S(=O)(O)CCN1CCOCC1 [Compound 0083-0027]
remaining activity at 2600 µM (tested concentration 2.6 mM, read-out: DdlB RA): 91%

O=C(Nc1ccccc1C(=O)O)c1ccccc1 [Compound 0090-0118]
remaining activity at 2100 µM (residual activity, read-out: DdlB RA): 101%

CCOC(=O)c1ccccc1S(N)(=O)=O [Compound 0147-0017]
remaining activity at 2200 µM (tested concentration 2.2 mM, read-out: DdlB RA): 99%

O=S(=O)(O)CCOc1ccccc1 [Compound 0165-0458]
remaining activity at 2500 µM (tested concentration 2.5 mM, read-out: DdlB RA): 100%

O=[N+]([O-])c1cc(S(=O)(=O)O)ccc1Cl [Compound 0195-0016]
remaining activity at 2100 µM (read-out: DdlB RA): 100%

CC1CCOB(O)O1 (stereo not shown) [Compound 0199-0113]
remaining activity at 4300 µM (tested concentration 4.3 mM, read-out: DdlB RA): 89%
